One experiment concerns hPSC colonies. To be noted: Essential-8 + 10 mM NaOAc.3H2O vs Essential-8 alone.
A further experiment relates to hESC. The following applies: incubated in mTeSR plus NaOAc.3H2O, then transferred to differentiation medium. The procedure: (6A) Spontaneous differentiation of hESC incubated in mTeSR only then transferred to differentiation medium. […] (6B) hESC incubated in mTeSR plus NaOAc.3H2O, then transferred to differentiation medium.
These colonies were labeled with an antibody to Pax6, a marker for ectodermal differentiation.

For another experiment, the system named is hESC colonies. The procedure:
Colonies were incubated in mTeSR or mTeSR plus varying concentrations of NaOAc.3H2O.

Experiment [1] deals with human embryonic stem cells (hESC).
Source text: These are hallmarks of healthy pluripotent human embryonic stem cells (hESC) in culture. […] These are not normal pluripotent stem cell morphologies and are observed when colonies begin to differentiate.
The next experiment deals with H9 hESC. The following applies: H9 colony from another lab, mTeSR1 + 10 mM NaOAc.3H2O, 24 hours.
Experiment [2] concerns human embryonic stem cells (hESC). As to the method: FIG. 2 is a panel showing that the addition of NaOc.3H2O to hPSC culture medium rescued human embryonic stem cell cultures, improved attachment/spreading, and decreased cell death. […] (2E) Comparison of hESC attachment in mTeSR1 or mTeSR1+10 mM NaOAc.3H2O, (2F) Spreading of colonies in mTeSR1 only is poor; colonies are elevated, not flat, (2G) Spreading of colonies in mTeSR1+10 mM NaOAc.3H2O is improved; colonies are flatter and spread faster. (2H-2M) StemCellQC™ time-lapse video bioinformatics analysis of colonies grown in mTeSR1 only or mTeSR1+10 mM NaOAc. Colonies cultured in mTeSR1+10 mM NaOAc grow faster (2H and 2I), are rounder (normal morphology) (2J), have better motility (2K and 2L), and have fewer dead cells (2M).
This is very important and may be a factor in preventing unwanted differentiation. FIGS. 2H-M show video bioinformatics analysis of live hESC growing in vitro. This analysis was done on time-lapse images of living cultures and allows quantitative comparison between cells grown in different media.
This is another data set of the same source.

The mark [3] stands for this setting: mTeSR1 + 10 mM NaOAc vs mTeSR1 only.

Where two headings read alike, the source gives them in different places.

As for `CC(=O)[O-].O.O.O.[Na+]` [NaOAc.3H2O, sodium acetate trihydrate], the colony morphology result in the experiment with hPSC colonies is reported as “improved morphology”. Further, in the experiment on hESC, the “Pax6 staining (ectodermal marker)” value is “stained positively for Pax6”. In addition, the “Oct 4 fluorescence, concentration comparison” value with hESC colonies (10 μM concentration) is “Fluorescence was strongest”. The Oct4A staining result with hESC colonies (mTeSR1 + 5 mM NaOAc) was “Positive Oct4A staining”. In the experiment on hESC colonies (mTeSR1 + 10 mM NaOAc), the Oct4A staining entry is “Positive Oct4A staining” and the Sox2 staining result is reported as “Positive Sox2 staining”. Besides, the “Oct 4 labeling (biomarker for pluripotency)” value in the experiment with hESC colonies (mTeSR plus varying concentrations of NaOAc.3H2O) is reported as “bright labeling of Oct 4”. In addition, in experiment [1] (mTeSR + 1 mM NaOAc.3H2O), the colony morphology result was “little effect on colony morphology”. In addition, the colony morphology result in experiment [1] (mTeSR + 5 or 10 mM NaOAc.3H2O) is listed as “colony morphology was restored to normal”. Also, in experiment [1] (passaged in mTeSR with the NaOAc.3H2O supplement), the “passages without differentiation of colonies” value is on record as “over 20 times”. Moreover, in the experiment with H9 hESC, the colony morphology result was “round morphology with smooth edges”. For the same compound, in experiment [2] (setting [3]), the “brightness to area ratio (measurement of cell death)” value is given as “low brightness to area ratio”, the cell death result is listed as “Fewer cells died”, the colony motility result is reported as “Motility was greater” and the growth rate result was “much faster”. Moreover, the “solidity (colony roundness)” value in experiment [2] (setting [3]) is reported as “closer to 1”. The “spreading of hESC colonies on the substrate” value in experiment [2] (mTeSR1 + 10 mM NaOAc.3H2O vs mTeSR1) is “spread faster on the substrate”. The “attachment of cells to their substrate” value in experiment [2] (mTeSR1 + 10 mM NaOAc.3H2O vs mTeSR1, modest but significantly different) is recorded as “enhanced the attachment of cells to their substrate”.

(Values after US10370637B2, “Technology for sustaining pluripotency and improved growth of stem cells in culture” (The Regents of the University of California, priority 2015, dated 2019).)
